The text below walks through data of patent US8138158B2, “Compositions and methods for therapy for diseases characterized by defective chloride transport” (Children's Hospital & Research Center at Oakland, priority 1997, dated 2012).

Assay [1] relates to CF15 monolayers homozygous for ΔF508 CFTR. The assay can be described thus: Short-circuit current across CF15 monolayers homozygous for ΔF508 CFTR. Type of assay: cell-based, human. On the procedure:
Human airway cell culture. The human submucosal serous gland-like cell line Calu-3, the CF nasal epithelial cell line homozygous for ΔF508 CFTR (CF15) and human tracheal primary cultures (hTE) were cultured as described (Jefferson, D. M., Valentich, J. D., Marini, F. C., Grubman, S. A., Iannuzzi, M. C., Dorkin, H. L., Li, M., Klinger, K. W. & Welsh, M. J. (1990) Am. J. Physiol. 259, L496-L505. Sachs, L. A., Finkbeiner, W. E. & Widdicombe, J. H. (2003) In Vitro Cell Dev. Biol. Anim. 39, 56-62.). Wildtype CFTR-corrected CF15 cells were generated via adenovirus-mediated gene transfer. Growth media were nominally free of ascorbic acid (<10 μm, University Pathology Inc., Salt Lake City, Utah). For transepithelial measurements cells were grown on permeable filter inserts and used after 3 to 10 days.
Short-circuit current measurement. Calu-3 or CF15 cells were grown as monolayers, mounted in Ussing chambers and short-circuit current (ISC) was recorded as described (Illek, B. & Fischer, H. (1998) Am. J. Physiol. 275, L902-L910). At 20-50 second intervals, transepithelial voltage was clamped from zero to 2 mV and the transepithelial resistance (Rte) was calculated. A serosa-to-mucosa-directed Cl gradient was applied. Serosal Ussing chamber solution contained (in mM): 120 NaCl, 20 NaHCO3, 5 KHCO3, 1.2 NaH2PO4, 5.6 glucose, 2.5 CaCl2, 1.2 MgCl2. In mucosal Ussing chamber solutions, all Cl salts were exchanged for gluconate salts.
The CF15 cell line was used to determine whether ascorbate-stimulated Cl currents were solely mediated by the CFTR Cl conductance. The CF15 cell line is characterized by the absence of functional CFTR in the apical plasma membrane but the presence of other non-CFTR Cl conductances (Jefferson, D. M., Valentich, J. D., Marini, F. C., Grubman, S. A., Iannuzzi, M. C., Dorkin, H. L., Li, M., Klinger, K. W. & Welsh, M. J. (1990) Am. J. Physiol. 259, L496-L505). A concentration of L-ascorbic acid that lay within the upper plateau of the dose response curve (500 μm) was applied and ascorbate-stimulated Cl currents in CF15 vs. wildtype CFTR-corrected CF15 monolayers was compared (FIG. 23A). […] The defective response to L-ascorbic acid was reversed in wildtype CFTR-corrected CF15 epithelia such that ISC responded promptly to L-ascorbic acid (ΔISC=7.5±0.5 μA/cm^2, n=6). The ascorbate-stimulated current was further activated by the cAMP agonist forskolin and total stimulated ISC averaged 12.1±1.1 μA/cm^2 (FIG. 4B). The ascorbate-stimulated Cl current reached 60±15% of the forskolin-stimulated current in CFTR-corrected CF15 monolayers, which was close to the corresponding findings in Calu-3 monolayers (68%, see FIG. 21A). […]
In this example, chloride currents stimulated by L-ascorbate or D-ascorbate were measured in CF15 versus. wildtype CFTR-corrected CF15 monolayers. A concentration of L-ascorbate (1 mM) or D-isoascorbate (300 μm) that lay within the upper plateau of the dose-response curve was applied to cells and the resulting chloride currents stimulated in CF15 versus wildtype CFTR-corrected CF15 monolayers were measured (FIG. 25 A-H). […]
The functional activation of ΔF508 CFTR was determined after correction of the underlying trafficking defect of ΔF508 CFTR using S-Nitrosoglutathione (Zaman, et al., Biochem Biophys Res Commun 284: 65-70, 2001; Snyder, et al., American Journal of Respiratory and Critical Care Medicine 165: 922-6, 2002; Andersson, et al. Biochemical and Biophysical Research Communication 297(3): 552-557, 2002.). […]

Assay [2] deals with T1, CFTR Cl channels (Homo sapiens, UniProt P13569).
T1 construct: Calu-3 airway cells which express large amounts of native CFTR; endogenous in cells; host or cells: Calu-3 human airway epithelial cells
The assay can be described thus: Outside-out single channel patch clamp on Calu-3 cells. Type of assay: cell-based. The method, then: Patch clamp analysis. Single channel patch clamp studies were performed on Calu-3 cells at 37° C. The outside-out recording mode was established via the whole cell mode as described (Fischer, H. (2001) in Methods in Molecular Medicine, […]. & Walker, J. M. (Humana Press Inc, Totowa), pp. 49-66.). The bath solution contained (in mM) 145 NaCl, 1.7 CaCl2, 1 MgCl2, 10 Hepes, 10 glucose, pH=7.4. The pipette solution contained (in mM): 15 N-methyl-D-glucamine (NMG) Cl, 10 EGTA, 1 MgCl2, 10 Hepes, 10 glucose, 120 NMG-gluconate, 5 MgATP, 0.1 LiGTP, pH=7.4. […] The regulatory role of vitamin C on Cl ion channel activity was studied in Calu-3 airway cells which express large amounts of native CFTR as their major Cl conductance ([…]., Widdicombe, J. H. & Wine, J. J. (1994) Am. J. Physiol. 266, […]-[…]). […] Details of the single channel recording are illustrated in FIG. 20C. […] At negative potentials no channel openings were resolved indicating Cl-over-gluconate selectivity. Cyclic AMP is the major intracellular messenger for the activation of CFTR. We tested the possibility that L-ascorbic acid increased intracellular cAMP levels [cAMP], by either turning on cAMP production or preventing cAMP degradation. FIG. 20E compares whole cell cAMP levels of Calu-3 cells challenged with either increasing concentrations of L-ascorbic acid or the cAMP agonist forskolin.
(In patch-clamp work, channel activity is measured electrically.)

T1 sequence (P13569 whole entry): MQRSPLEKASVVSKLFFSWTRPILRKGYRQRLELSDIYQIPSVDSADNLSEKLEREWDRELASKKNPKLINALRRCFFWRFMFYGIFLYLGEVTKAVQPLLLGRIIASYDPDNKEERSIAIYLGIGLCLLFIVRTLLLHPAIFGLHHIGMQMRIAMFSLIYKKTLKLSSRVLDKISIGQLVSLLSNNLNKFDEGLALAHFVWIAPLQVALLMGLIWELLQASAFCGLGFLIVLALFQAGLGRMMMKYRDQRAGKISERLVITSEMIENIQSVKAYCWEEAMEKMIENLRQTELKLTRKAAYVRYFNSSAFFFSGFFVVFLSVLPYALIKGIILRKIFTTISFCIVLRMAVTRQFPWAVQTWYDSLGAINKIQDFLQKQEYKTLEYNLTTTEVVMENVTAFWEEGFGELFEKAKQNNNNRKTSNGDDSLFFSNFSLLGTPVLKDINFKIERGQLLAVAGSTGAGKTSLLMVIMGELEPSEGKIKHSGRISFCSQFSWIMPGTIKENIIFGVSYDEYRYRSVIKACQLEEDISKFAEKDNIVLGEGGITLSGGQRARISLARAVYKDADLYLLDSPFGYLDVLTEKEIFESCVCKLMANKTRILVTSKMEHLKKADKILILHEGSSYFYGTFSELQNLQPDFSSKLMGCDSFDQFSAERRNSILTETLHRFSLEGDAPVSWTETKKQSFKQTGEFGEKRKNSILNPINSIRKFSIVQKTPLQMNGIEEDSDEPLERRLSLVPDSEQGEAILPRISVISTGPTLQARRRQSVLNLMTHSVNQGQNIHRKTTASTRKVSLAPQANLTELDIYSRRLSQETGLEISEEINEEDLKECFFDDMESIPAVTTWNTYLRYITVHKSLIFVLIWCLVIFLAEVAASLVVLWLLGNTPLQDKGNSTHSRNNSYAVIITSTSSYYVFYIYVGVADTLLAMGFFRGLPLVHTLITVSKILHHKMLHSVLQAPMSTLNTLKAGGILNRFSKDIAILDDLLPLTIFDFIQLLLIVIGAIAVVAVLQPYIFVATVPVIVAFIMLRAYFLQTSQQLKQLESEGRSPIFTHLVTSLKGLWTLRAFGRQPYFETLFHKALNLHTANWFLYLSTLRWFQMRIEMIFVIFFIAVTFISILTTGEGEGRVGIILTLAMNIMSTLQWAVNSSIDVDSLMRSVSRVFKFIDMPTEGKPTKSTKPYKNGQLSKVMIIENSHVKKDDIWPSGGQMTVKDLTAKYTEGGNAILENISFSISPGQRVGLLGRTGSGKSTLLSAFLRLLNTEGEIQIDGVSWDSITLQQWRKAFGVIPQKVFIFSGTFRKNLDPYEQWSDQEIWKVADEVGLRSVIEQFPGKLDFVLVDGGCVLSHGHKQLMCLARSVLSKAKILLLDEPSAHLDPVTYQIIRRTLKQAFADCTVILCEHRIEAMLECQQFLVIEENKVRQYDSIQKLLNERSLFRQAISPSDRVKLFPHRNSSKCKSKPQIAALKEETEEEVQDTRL

With `O=C1O[C@H](C(O)CO)C(O)=C1O` (stereo partly drawn) [L-ascorbic acid, L-xyloascorbic acid], the “transepithelial chloride currents increased on average by” value in assay [1] (CF15 treated with 1 mM SNOG for 5-24 hours, L-ascorbate 1 mM, n=10) worked out at 2.1±0.1. This molecule had a ΔISC in assay [1] (uncorrected CF15, L-ascorbic acid 500 μm, n=5) of 1.3±0.5 μA/cm^2. The ΔIsc in assay [1] (untreated CF epithelia, L-ascorbate 1 mM, amiloride, n=13) is recorded as 1.1±0.3 μA/cm^2. Further, in assay [2] (100 μM L-ascorbic acid, n=4), the “average single channel open probability (Po) increased from zero to” value is 0.21±0.08. The “CFTR Cl channel openings” value in assay [2] (applied to extracellular surface of the patched membrane) is recorded as “induced openings of CFTR Cl channels”. Moreover, the “slope conductance of ascorbate-stimulated chloride conductance” value in assay [2] (n=4) was 8.9±0.2 pS.
